Laboratory results taken from US8461305B2, “L-fucose α1→6 specific lectin” (J-Oil Mills, Inc., priority 2008, dated 2013).

Experiments:
[1] = hemagglutinating inhibition test with sugars (sugar binding specificity); type: cell-based
Text: The sugar binding specificity of lectin also can be confirmed by using erythrocytes that can be specifically agglutinated by the lectin to investigate the sugar type that may inhibit the agglutination of the erythrocytes and the concentration thereof.
Various monosaccharides, oligosaccharides, and polysaccharides shown in Table 2 and glycoproteins shown in Table 3 were subjected to hemagglutinating inhibition test to evaluate PTL of Example 1 and the SRL of Example 2 with regard to the sugar binding specificity.
On a 96 well U-bottom microtiter plate, double dilution series of 10 μl of monosaccharide, oligosaccharide, polysaccharide, and glycoprotein solutions were prepared. Then, lectin solution adjusted in advance to have titer 4 was added in an amount of 10 μl to the respective wells. Then, the plate was subjected to a still-standing at a room temperature for one hour for sensitization. Then, 10 μl of 4%-red blood cell suspension was added to the respective wells and the plate was further subjected to a still-standing at a room temperature for one hour. […] The lowest concentration showing the inhibition was assumed as the minimum inhibition concentration. The lower the minimum inhibition concentration is, the higher the specificity to lectin is.
For comparison, the sugar binding specificity was evaluated using the following commercially-available lectins: Comparison Example 1: AAL (SEIKAGAKU BIOBUSINESS CORPORATION—J-OIL MILLS, Inc.), Comparison Example 2: AOL (TOKYO CHEMICAL INDUSTRY CO., LTD.—Gekkeikan Sake Company, Ltd.), Comparison Example 3: LCA (SEIKAGAKU BIOBUSINESS CORPORATION—J-OIL MILLS, Inc.), and Comparison Example 4: PSA (SEIKAGAKU BIOBUSINESS CORPORATION—J-OIL MILLS, Inc.).

[2] = frontal affinity chromatography (FAC), association constant to PA sugar chains having other L-fucose; type: binding; conditions: for binding to non-L-fucose α1→6 sugar chain: FAC; for association constant Ka: 25 degrees C.
Description: The following section will describe a method of calculating an association constant by frontal affinity chromatography (FAC). This method is based on the following principle. […] Then, the elution front end (front) is observed immediately. When there is an affinity with lectin, the elution of the sugar chain is delayed.
The preparation of a lectin column used in the apparatus is performed in the method as described below. 1. Purified lectin is dissolved in 0.1 to 0.2M of NaHCO3 buffer solution (pH 8.3 to 8.5). 2. The lectin is immobilized, via a lectin primary amino group, a carrier such as NHS activated sepharose. 3. Then, the lectin is blocked by Tris buffer solution including primary amine or ethanolamine for example. 4. Lectin-sepharose is suspended in 10 mM Tris buffer, including 0.8% of NaCl (pH 7.4, TBS). Then, lectin immobilized resin is filled in a miniature column (φ2 mm×10 mm, 31.4 μl). 5. The miniature column in which the lectin immobilized resin is filled is protected by a holder and the lectin column is connected to an FAC automatic analysis apparatus (FAC-1, SHIMADZU CORPORATION).
Then, the elution of the PA sugar chain from the column is detected by a fluorescence detector (excitation wavelength/fluorescence wavelength: 310 nm/380 nm).
Based on the detection data, by using the elution front end (Vo) of the sugar chain (PA rhamnose) not interacting with lectin as a reference, the delay (V−Vo) of the elution front end (V) of a sugar chain interacting with lectin is calculated as an interaction strength. Then, based on the following FAC criteria expressions, the association constant (Ka) between the sugar chain and lectin is calculated based on V−Vo and Bt. If the interaction strength (V−Vo value) and the association constant are higher, a higher affinity is caused between lectin and an L-fucose α1→6 sugar chain.
[In the formula, A means substance used for the elution, Ao means the initial concentration of the substance A, B means a immobilized ligand, V means the elution volume, Vo means the elution front end volume of the substance not interacting with the immobilized ligand B at all, Bt means an effective ligand amount, Kd means a dissociation constant (an inverse of the association constant)].
Pyridylaminated (PA) sugar chains shown in FIG. 1 and FIG. 2 were used to frontal affinity chromatography (FAC) analysis. PA sugars were purchased from TAKARA BIO INC., SEIKAGAKU BIOBUSINESS CORPORATION, and Masuda Chemical Industries co., LTD. PA sugar were also obtained by pyridylaminating, by GlycoTAG®(TAKARA BIO INC.), an unlabeled sugar chain or a sugar chain obtained by subjecting a sugar chain to enzyme digestion for example.
Lectin was dissolved in 0.2 M NaHCO3 buffer solution (pH 8.3) including 0.5 M NaCl and coupled to the NHS-activated sepharose (GE Healthcare Bioscience) by following the manufacturer's instructions. Then, lectin immobilized sepharose was suspended in 10 mM Tris buffer (pH 7.4, TBS) including […] and the resultant matter was filled in a miniature column (φ2 mm×10 mm, 31.4 μl).
Frontal affinity chromatography was performed using FAC automatic analysis apparatus (FAC-1, SHIMADZU CORPORATION). In particular, the above-prepared lectin column was inserted to a stainless steel holder and the holder was connected to FAC-1 apparatus. The flow rate and the column temperature were maintained at 0.125 ml/min and 25 degrees C., respectively. After the miniature column was equilibrated by the TBS, an excessive volume (0.5 ml to 4 ml) of a PA sugar chain (3.75 nM or 7.5 nM) was continuously inputted to the column using an automatic sampling apparatus.
The fluorescent strength of the eluate of the PA sugar (excitation wavelength of 310 nm and fluorescence wavelength of 380 nm) was monitored to measure the interaction strength [a difference of the front end eluate to the standard oligosaccharide (PA rhamnose): V−V0]. […]

[3] = inhibitor: N-Acetylneuraminic acid
[4] = inhibitor: N-acetylgalactosamine
[5] = inhibitor: N-glycolylneuraminic acid
[6] = Sugar chain No. 728 (as listed in Table 5/12)

Substance	minimum inhibition concentration of hemagglutination ([1]; inhibitor: Fructose) [mM]	minimum inhibition concentration of hemagglutination ([1]; inhibitor: Galactose) [mM]	minimum inhibition concentration of hemagglutination ([1]; inhibitor: Glucose) [mM]	minimum inhibition concentration of hemagglutination ([1]; inhibitor: L-fucose) [mM]	minimum inhibition concentration of hemagglutination ([1]; inhibitor: Lactose) [mM]	minimum inhibition concentration of hemagglutination ([1]; inhibitor: Maltose) [mM]	minimum inhibition concentration of hemagglutination ([1]; inhibitor: Mannose) [mM]	minimum inhibition concentration of hemagglutination ([1]; inhibitor: Melibiose) [mM]	minimum inhibition concentration of hemagglutination ([1]; inhibitor: Metyl α-mannoside) [mM]	minimum inhibition concentration of hemagglutination [1, 3] [mM]	minimum inhibition concentration of hemagglutination [1, 4] [mM]	minimum inhibition concentration of hemagglutination ([1]; inhibitor: N-acetylglucosamine) [mM]	minimum inhibition concentration of hemagglutination [1, 5] [mM]	minimum inhibition concentration of hemagglutination ([1]; inhibitor: Raffinose) [mM]	minimum inhibition concentration of hemagglutination ([1]; inhibitor: Rhamnose) [mM]	minimum inhibition concentration of hemagglutination ([1]; inhibitor: Serial lactose) [mM]	minimum inhibition concentration of hemagglutination ([1]; inhibitor: Sucrose) [mM]	minimum inhibition concentration of hemagglutination ([1]; inhibitor: Xylose) [mM]	binding to non-L-fucose α1→6 sugar chain [2]	association constant Ka ([2]; Sugar chain No. 419) [M⁻¹]	also measured
Pholiota terrestris lectin [PTL, novel L-fucose α1→6 specific lectin purified from the mushroom Pholiota terrestris]	>100	>100	>100	>100	>6	>100	>100	>100	>100	>100	>100	>100	>100	>100	>100	>6	>100	>100	not bound	<1000	association constant Ka ([2]; Sugar chain No. 420): <1000 M⁻¹; association constant Ka ([2]; Sugar chain No. 718): <1000 M⁻¹; association constant Ka ([2]; Sugar chain No. 719): <1000 M⁻¹; association constant Ka ([2]; Sugar chain No. 720): <1000 M⁻¹; association constant Ka ([2]; Sugar chain No. 721): <1000 M⁻¹; association constant Ka ([2]; Sugar chain No. 722): <1000 M⁻¹; association constant Ka ([2]; Sugar chain No. 723): <1000 M⁻¹; association constant Ka ([2]; Sugar chain No. 726): <1000 M⁻¹; association constant Ka ([2]; Sugar chain No. 727): <1000 M⁻¹; association constant Ka [2, 6]: <1000 M⁻¹; association constant Ka ([2]; Sugar chain No. 729): <1000 M⁻¹; association constant Ka ([2]; Sugar chain No. 730): <1000 M⁻¹; association constant Ka ([2]; Sugar chain No. 731): <1000 M⁻¹; association constant Ka ([2]; Sugar chain No. 739): <1000 M⁻¹; association constant Ka ([2]; Sugar chain No. 909): <1000 M⁻¹; association constant Ka ([2]; Sugar chain No. 910): <1000 M⁻¹; association constant Ka ([2]; Sugar chain No. 931): <1000 M⁻¹; association constant Ka ([2]; Sugar chain No. 932): <1000 M⁻¹; association constant Ka ([2]; Sugar chain No. 933): <1000 M⁻¹
Stropharia rugosoannulata lectin [SRL, novel L-fucose α1→6 specific lectin purified from the mushroom Stropharia rugosoannulata]	>100	>100	>100	>100	>6	>100	>100	>100	>100	>100	>100	>100	>100	>100	>100	>6	>100	>100	not bound	<1000	association constant Ka ([2]; Sugar chain No. 420): <1000 M⁻¹; association constant Ka ([2]; Sugar chain No. 718): <1000 M⁻¹; association constant Ka ([2]; Sugar chain No. 719): <1000 M⁻¹; association constant Ka ([2]; Sugar chain No. 720): <1000 M⁻¹; association constant Ka ([2]; Sugar chain No. 721): <1000 M⁻¹; association constant Ka ([2]; Sugar chain No. 722): <1000 M⁻¹; association constant Ka ([2]; Sugar chain No. 723): <1000 M⁻¹; association constant Ka ([2]; Sugar chain No. 726): <1000 M⁻¹; association constant Ka ([2]; Sugar chain No. 727): <1000 M⁻¹; association constant Ka [2, 6]: <1000 M⁻¹; association constant Ka ([2]; Sugar chain No. 729): <1000 M⁻¹; association constant Ka ([2]; Sugar chain No. 730): <1000 M⁻¹; association constant Ka ([2]; Sugar chain No. 731): <1000 M⁻¹; association constant Ka ([2]; Sugar chain No. 739): <1000 M⁻¹; association constant Ka ([2]; Sugar chain No. 909): <1000 M⁻¹; association constant Ka ([2]; Sugar chain No. 910): <1000 M⁻¹; association constant Ka ([2]; Sugar chain No. 931): <1000 M⁻¹; association constant Ka ([2]; Sugar chain No. 932): <1000 M⁻¹; association constant Ka ([2]; Sugar chain No. 933): <1000 M⁻¹
